Reference: ChEMBL document CHEMBL1149262, “Monoamine transporter binding, locomotor activity, and drug discrimination properties of 3-(4-substituted-phenyl)tropane-2-carboxylic acid methyl ester isomers” (J Med Chem, 2004)
Activity calls are given as the source filed them. The rule behind the calls is not given here.

Key:
[1] = tested on: Mus musculus; test: Locomotor activity in CD1 mouse assessed as stimulation at 1 mg/kg, ip after 1 hr relative to control; format: functional; conditions: route intraperitoneal
[2] = tested on: Mus musculus; test: Locomotor activity in CD1 mouse assessed as stimulation at 1 mg/kg, ip after 2 hrs relative to control; format: functional; conditions: route intraperitoneal
[3] = tested on: Mus musculus; test: Locomotor activity in CD1 mouse assessed as stimulation at 1 mg/kg, ip after 3 hrs relative to control; format: functional; conditions: route intraperitoneal
[4] = tested on: Mus musculus; test: Locomotor activity in CD1 mouse assessed as stimulation at 1 mg/kg, ip after 4 hrs relative to control; format: functional; conditions: route intraperitoneal
[5] = tested on: Rattus norvegicus; test: Cocaine discrimination in ip dosed CD Albino rat; format: functional
[6] = tested on: Rattus norvegicus; test: Drug discrimination effect in CD Albino rat assessed as percent of rat choosing cocaine lever at 3 mg/kg, ip; format: functional; conditions: route intraperitoneal
[7] = tested on: Rattus norvegicus; test: Drug discrimination effect in CD Albino rat assessed as percent of rat choosing cocaine lever at 10 mg/kg, ip; format: functional; conditions: route intraperitoneal
[8] = tested on: Rattus norvegicus; test: Drug discrimination effect in CD Albino rat assessed as percent of rat choosing cocaine lever at 17 mg/kg, ip; format: functional; conditions: route intraperitoneal
[9] = tested on: Mus musculus; test: Activity in CD1 mouse assessed as slight or intermittent stereotypy at 10 mg/kg, ip after 4 hrs; format: functional, organism-based; set-up: dose 10 mg/kg
[10] = tested on: Mus musculus; test: Activity in CD1 mouse assessed as stereotypy at 100 mg/kg, ip after 4 hrs; format: functional, organism-based; set-up: dose 100 mg/kg
[11] = tested on: Mus musculus; test: Activity in CD1 mouse assessed as straub tail at 100 mg/kg, ip after 4 hrs; format: functional, organism-based; set-up: dose 100 mg/kg
[12] = tested on: Mus musculus; test: Activity in CD1 mouse assessed as hind limb splay at 100 mg/kg, ip after 4 hrs; format: functional, organism-based; set-up: dose 100 mg/kg; conditions: Hindlimb
[13] = tested on: Mus musculus; test: Activity in CD1 mouse assessed as death at 100 mg/kg, ip after 4 hrs; format: functional, organism-based; set-up: dose 100 mg/kg
[14] = tested on: Mus musculus; test: Activity in CD1 mouse assessed as convulsions at 100 mg/kg, ip after 4 hrs; format: functional, organism-based; set-up: dose 100 mg/kg
[15] = tested on: Mus musculus; test: Activity in CD1 mouse assessed as tremor at 100 mg/kg, ip after 4 hrs; format: functional, organism-based; set-up: dose 100 mg/kg
[16] = target: Sodium-dependent dopamine transporter (Homo sapiens, UniProt Q01959); test: Displacement of [3H]WIN-35428 from DAT
[17] = target: Sodium-dependent noradrenaline transporter (Homo sapiens, UniProt P23975); test: Displacement of [3H]nisoxetine from NET
[18] = tested on: Mus musculus; test: Locomotor activity in ip dosed CD1 mouse in peak hour; format: functional
[19] = tested on: Mus musculus; test: Locomotor activity in CD1 mouse assessed as stimulation at 3 mg/kg, ip after 1 hr relative to control; format: functional; conditions: route intraperitoneal
[20] = tested on: Mus musculus; test: Locomotor activity in CD1 mouse assessed as stimulation at 3 mg/kg, ip after 2 hrs relative to control; format: functional; conditions: route intraperitoneal
[21] = tested on: Mus musculus; test: Locomotor activity in CD1 mouse assessed as stimulation at 3 mg/kg, ip after 3 hrs relative to control; format: functional; conditions: route intraperitoneal
[22] = tested on: Mus musculus; test: Locomotor activity in CD1 mouse assessed as stimulation at 3 mg/kg, ip after 4 hrs relative to control; format: functional; conditions: route intraperitoneal
[23] = tested on: Mus musculus; test: Locomotor activity in CD1 mouse assessed as stimulation at 10 mg/kg, ip after 1 hr relative to control; format: functional; conditions: route intraperitoneal
[24] = tested on: Mus musculus; test: Locomotor activity in CD1 mouse assessed as stimulation at 10 mg/kg, ip after 2 hrs relative to control; format: functional; conditions: route intraperitoneal
[25] = tested on: Mus musculus; test: Locomotor activity in CD1 mouse assessed as stimulation at 10 mg/kg, ip after 3 hrs relative to control; format: functional; conditions: route intraperitoneal
[26] = tested on: Mus musculus; test: Locomotor activity in CD1 mouse assessed as stimulation at 10 mg/kg, ip after 4 hrs relative to control; format: functional; conditions: route intraperitoneal
[27] = tested on: Mus musculus; test: Locomotor activity in CD1 mouse assessed as stimulation at 30 mg/kg, ip after 1 hr relative to control; format: functional; conditions: route intraperitoneal
[28] = tested on: Mus musculus; test: Locomotor activity in CD1 mouse assessed as stimulation at 30 mg/kg, ip after 2 hrs relative to control; format: functional; conditions: route intraperitoneal
[29] = tested on: Mus musculus; test: Locomotor activity in CD1 mouse assessed as stimulation at 30 mg/kg, ip after 3 hrs relative to control; format: functional; conditions: route intraperitoneal
[30] = tested on: Mus musculus; test: Locomotor activity in CD1 mouse assessed as stimulation at 30 mg/kg, ip after 4 hrs relative to control; format: functional; conditions: route intraperitoneal
[31] = tested on: Mus musculus; test: Locomotor activity in ip dosed CD1 mouse after 1 hr relative to cocaine; format: functional
[32] = target: Sodium-dependent serotonin transporter (Homo sapiens, UniProt P31645)
Description: Displacement of [3H]paroxetine from 5HTT

[33] = tested on: Rattus norvegicus; test: Drug discrimination effect in CD Albino rat assessed as percent of rat choosing cocaine lever at 5.6 mg/kg, ip; format: functional; conditions: route intraperitoneal
[34] = tested on: Mus musculus; test: Activity in CD1 mouse assessed as circling at 100 mg/kg, ip after 4 hrs; format: functional, organism-based; set-up: dose 100 mg/kg
[35] = tested on: Mus musculus; test: Activity in CD1 mouse assessed as hypoactivity at 100 mg/kg, ip after 4 hrs; format: functional, organism-based; set-up: dose 100 mg/kg
[36] = tested on: Mus musculus; test: Locomotor activity in CD1 mouse assessed as stimulation at 0.3 mg/kg, ip after 1 hr relative to control; format: functional; conditions: route intraperitoneal
[37] = tested on: Mus musculus; test: Locomotor activity in CD1 mouse assessed as stimulation at 0.3 mg/kg, ip after 2 hrs relative to control; format: functional; conditions: route intraperitoneal
[38] = tested on: Mus musculus; test: Locomotor activity in CD1 mouse assessed as stimulation at 0.3 mg/kg, ip after 3 hrs relative to control; format: functional; conditions: route intraperitoneal
[39] = tested on: Mus musculus; test: Locomotor activity in CD1 mouse assessed as stimulation at 0.3 mg/kg, ip after 4 hrs relative to control; format: functional; conditions: route intraperitoneal
[40] = tested on: Mus musculus; test: Locomotor activity in CD1 mouse assessed as stimulation at 0.1 mg/kg, ip after 1 hr relative to control; format: functional; conditions: route intraperitoneal
[41] = tested on: Mus musculus; test: Locomotor activity in CD1 mouse assessed as stimulation at 0.1 mg/kg, ip after 2 hrs relative to control; format: functional; conditions: route intraperitoneal
[42] = tested on: Mus musculus; test: Locomotor activity in CD1 mouse assessed as stimulation at 0.1 mg/kg, ip after 3 hrs relative to control; format: functional; conditions: route intraperitoneal
[43] = tested on: Mus musculus; test: Locomotor activity in CD1 mouse assessed as stimulation at 0.1 mg/kg, ip after 4 hrs relative to control; format: functional; conditions: route intraperitoneal
[44] = tested on: Rattus norvegicus; test: Drug discrimination effect in CD Albino rat assessed as percent of rat choosing cocaine lever at 0.17 mg/kg, ip; format: functional; conditions: route intraperitoneal
[45] = tested on: Rattus norvegicus; test: Drug discrimination effect in CD Albino rat assessed as percent of rat choosing cocaine lever at 0.3 mg/kg, ip; format: functional; conditions: route intraperitoneal
[46] = tested on: Mus musculus; test: Activity in CD1 mouse assessed as hyperactivity at 1 mg/kg, ip after 4 hrs; format: functional, organism-based; set-up: dose 1 mg/kg
[47] = tested on: Mus musculus; test: Activity in CD1 mouse assessed as stereotypy at 1 mg/kg, ip after 4 hrs; format: functional, organism-based; set-up: dose 1 mg/kg
[48] = tested on: Mus musculus; test: Activity in CD1 mouse assessed as circling at 1 mg/kg, ip after 4 hrs; format: functional, organism-based; set-up: dose 1 mg/kg
[49] = tested on: Mus musculus; test: Activity in CD1 mouse assessed as stereotypy at 10 mg/kg, ip after 4 hrs; format: functional, organism-based; set-up: dose 10 mg/kg
[50] = tested on: Mus musculus; test: Activity in CD1 mouse assessed as circling at 10 mg/kg, ip after 4 hrs; format: functional, organism-based; set-up: dose 10 mg/kg
[51] = tested on: Mus musculus; test: Activity in CD1 mouse assessed as slight or intermittent hyperactivity at 10 mg/kg, ip after 4 hrs; format: functional, organism-based; set-up: dose 10 mg/kg
[52] = tested on: Mus musculus; test: Activity in CD1 mouse assessed as slight or intermittent hyperactivity at 100 mg/kg, ip after 4 hrs; format: functional, organism-based; set-up: dose 100 mg/kg
[53] = tested on: Rattus norvegicus; test: Drug discrimination effect in CD Albino rat assessed as percent of rat choosing cocaine lever at 0.1 mg/kg, ip; format: functional; conditions: route intraperitoneal

Sodium-dependent noradrenaline transporter, sequence (P23975 whole entry): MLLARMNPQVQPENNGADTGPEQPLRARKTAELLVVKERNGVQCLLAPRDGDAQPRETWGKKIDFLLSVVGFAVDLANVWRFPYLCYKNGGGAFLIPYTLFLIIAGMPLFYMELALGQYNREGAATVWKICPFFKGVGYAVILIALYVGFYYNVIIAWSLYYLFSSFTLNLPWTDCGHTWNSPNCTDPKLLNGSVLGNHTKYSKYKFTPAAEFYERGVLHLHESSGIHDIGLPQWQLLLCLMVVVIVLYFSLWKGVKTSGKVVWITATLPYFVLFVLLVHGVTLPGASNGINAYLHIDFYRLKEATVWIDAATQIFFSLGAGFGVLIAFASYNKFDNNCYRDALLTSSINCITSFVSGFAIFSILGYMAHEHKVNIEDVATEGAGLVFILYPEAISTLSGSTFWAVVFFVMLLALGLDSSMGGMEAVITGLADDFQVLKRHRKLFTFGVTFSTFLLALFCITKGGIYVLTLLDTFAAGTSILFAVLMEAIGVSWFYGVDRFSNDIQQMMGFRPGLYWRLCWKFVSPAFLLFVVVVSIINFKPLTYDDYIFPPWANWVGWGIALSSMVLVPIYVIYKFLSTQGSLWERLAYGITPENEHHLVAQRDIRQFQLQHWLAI
Sodium-dependent serotonin transporter, sequence (P31645 whole entry): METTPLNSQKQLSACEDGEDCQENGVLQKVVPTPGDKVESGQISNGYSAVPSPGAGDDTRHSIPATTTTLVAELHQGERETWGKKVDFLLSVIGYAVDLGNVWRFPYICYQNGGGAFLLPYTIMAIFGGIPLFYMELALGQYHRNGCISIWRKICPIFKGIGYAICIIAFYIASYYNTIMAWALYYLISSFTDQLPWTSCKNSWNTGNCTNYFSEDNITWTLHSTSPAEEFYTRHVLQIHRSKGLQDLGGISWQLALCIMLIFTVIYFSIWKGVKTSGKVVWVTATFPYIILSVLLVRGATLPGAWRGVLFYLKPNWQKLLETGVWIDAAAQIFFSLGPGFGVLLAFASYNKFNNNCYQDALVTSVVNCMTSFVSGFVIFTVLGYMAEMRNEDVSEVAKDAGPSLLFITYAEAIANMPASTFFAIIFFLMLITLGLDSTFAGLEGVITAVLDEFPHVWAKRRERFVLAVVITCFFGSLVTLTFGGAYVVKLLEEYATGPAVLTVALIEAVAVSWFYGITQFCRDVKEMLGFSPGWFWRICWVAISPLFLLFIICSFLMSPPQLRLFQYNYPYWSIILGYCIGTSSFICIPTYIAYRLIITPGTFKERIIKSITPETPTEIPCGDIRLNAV
Sodium-dependent dopamine transporter, sequence (Q01959 whole entry): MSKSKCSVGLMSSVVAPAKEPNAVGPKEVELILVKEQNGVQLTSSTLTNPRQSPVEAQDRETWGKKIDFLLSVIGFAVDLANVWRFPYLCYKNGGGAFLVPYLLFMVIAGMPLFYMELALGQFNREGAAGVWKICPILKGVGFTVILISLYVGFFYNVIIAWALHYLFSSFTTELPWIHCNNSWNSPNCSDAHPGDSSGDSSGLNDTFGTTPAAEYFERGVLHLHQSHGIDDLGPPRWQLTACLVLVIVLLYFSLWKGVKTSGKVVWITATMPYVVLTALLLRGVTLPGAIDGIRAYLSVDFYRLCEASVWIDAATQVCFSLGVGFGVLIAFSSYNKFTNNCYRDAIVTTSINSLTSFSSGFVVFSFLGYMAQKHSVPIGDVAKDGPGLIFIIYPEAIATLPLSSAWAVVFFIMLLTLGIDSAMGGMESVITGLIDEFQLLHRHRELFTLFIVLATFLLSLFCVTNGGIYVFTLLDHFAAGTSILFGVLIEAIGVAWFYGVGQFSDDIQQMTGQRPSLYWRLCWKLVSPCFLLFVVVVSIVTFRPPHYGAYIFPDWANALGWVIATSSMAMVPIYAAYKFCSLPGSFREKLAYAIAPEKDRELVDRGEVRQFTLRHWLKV

Compound: COC(=O)[C@H]1C2CCC(C[C@@H]1c1ccc(I)cc1)N2C (stereo partly specified)
- Activity [1]: 0%
- Activity [2]: 44%
- Activity [3]: 99%
- Activity [4]: 41%
- ED50 [5]: 13.5 mg/kg
- Activity [6]: 0%
- Activity [7]: 14%
- Activity [8]: 80%
- Activity [9]: Active
- Activity [10]: Active
- Activity [11]: Active
- Activity [12]: Active
- Activity [13]: Active
- Activity [14]: Active
- Activity [15]: Active
- IC50 [16]: 22.7 nM
- IC50 [17]: 760 nM
- Ki [17]: 458 nM
- ED50 [18]: 9.9 mg/kg
- Activity [19]: 19%
- Activity [20]: 17%
- Activity [21]: 96%
- Activity [22]: 13%
- Activity [23]: 17%
- Activity [24]: 49%
- Activity [25]: 85%
- Activity [26]: 40%
- Activity [27]: 7%
- Activity [28]: 150%
- Activity [29]: 268%
- Activity [30]: 255%
- Ratio [31]: 0.1
- IC50 [32]: 66.3 nM
- Ki [32]: 6 nM

Compound: COC(=O)[C@H]1C2CCC(C[C@@H]1c1ccc(F)cc1)N2C (stereo partly specified)
- Activity [1]: -10%
- Activity [2]: 5%
- Activity [3]: 52%
- Activity [4]: 28%
- ED50 [5]: 8.01 mg/kg
- Activity [6]: 0%
- Activity [33]: 33%
- Activity [7]: 57%
- Activity [8]: 100%
- Activity [9]: Active
- Activity [10]: Active
- Activity [34]: Active
- Activity [14]: Active
- Activity [15]: Active
- Activity [35]: Active
- IC50 [17]: 7200 nM
- Ki [17]: 4340 nM
- ED50 [18]: 2.4 mg/kg
- Activity [19]: 15%
- Activity [20]: 58%
- Activity [21]: 120%
- Activity [22]: 19%
- Activity [23]: 58%
- Activity [24]: 107%
- Activity [25]: 260%
- Activity [26]: 196%
- Activity [27]: 24%
- Activity [28]: 207%
- Activity [29]: 298%
- Activity [30]: 127%
- IC50 [32]: > 10000 nM

Compound: COC(=O)[C@@H]1C2CC[C@H](C[C@@H]1c1ccc(I)cc1)N2C
- Activity [36]: 415%
- Activity [37]: 1765%
- Activity [38]: 1289%
- Activity [39]: 900%
- Activity [1]: 1489%
- Activity [2]: 1721%
- Activity [3]: 2099%
- Activity [4]: 2546%
- Activity [40]: -12%
- Activity [41]: 38%
- Activity [42]: -25%
- Activity [43]: 62%
- ED50 [5]: 0.2 mg/kg
- Activity [44]: 25%
- Activity [45]: 100%
- Activity [46]: Active
- Activity [47]: Active
- Activity [48]: Active
- Activity [49]: Active
- Activity [50]: Active
- Activity [51]: Active
- Activity [10]: Active
- Activity [12]: Active
- Activity [13]: Active
- Activity [52]: Active
- IC50 [16]: 1.3 nM
- IC50 [17]: 36 nM
- Ki [17]: 22 nM
- ED50 [18]: 0.4 mg/kg
- Activity [19]: 770%
- Activity [20]: 145%
- Activity [21]: 327%
- Activity [22]: 794%
- Activity [53]: 22%
- Ratio [31]: 4.4
- Ki [32]: 0.38 nM
